Measurements: the supplement of paper PMC11451515

System: SEM cells
Assay: cell viability relative to DMSO control; higher = less cytotoxic
Settings: 48 h
Summary of the method: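 Library compounds in DMSO were pin-dosed into 1536-well plates (5 μl) holding NOMO1 or SEM (500 cells/well) or P12-Ichikawa (1000 cells/well) leukemia cells, across an 11-point threefold series of 47 μM to 0.79 nM. Each cell line had been adapted for at least four passages in each medium. CellTiter-Glo One luminescence was read after 48 h at 37°C. Viability is the per-plate percentage relative to DMSO wells, with cell-free wells as background.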

[1] = HPLM + 10% dialyzed FBS, 0.000781 µM
[2] = HPLM + 10% dialyzed FBS, 0.00234 µM
[3] = HPLM + 10% dialyzed FBS, 0.00702 µM
[4] = HPLM + 10% dialyzed FBS, 0.0211 µM
[5] = HPLM + 10% dialyzed FBS, 0.0632 µM
[6] = HPLM + 10% dialyzed FBS, 0.19 µM
[7] = HPLM + 10% dialyzed FBS, 0.569 µM
[8] = HPLM + 10% dialyzed FBS, 1.71 µM
[9] = HPLM + 10% dialyzed FBS, 5.12 µM
[10] = HPLM + 10% dialyzed FBS, 15.4 µM
[11] = HPLM + 10% dialyzed FBS, 46.1 µM
[12] = RPMI 5 mM glucose + 10% FBS, 0.000781 µM
[13] = RPMI 5 mM glucose + 10% FBS, 0.00234 µM
[14] = RPMI 5 mM glucose + 10% FBS, 0.00702 µM
[15] = RPMI 5 mM glucose + 10% FBS, 0.0211 µM
[16] = RPMI 5 mM glucose + 10% FBS, 0.0632 µM
[17] = RPMI 5 mM glucose + 10% FBS, 0.19 µM
[18] = RPMI 5 mM glucose + 10% FBS, 0.569 µM
[19] = RPMI 5 mM glucose + 10% FBS, 1.71 µM
[20] = RPMI 5 mM glucose + 10% FBS, 5.12 µM
[21] = RPMI 5 mM glucose + 10% FBS, 15.4 µM
[22] = RPMI 5 mM glucose + 10% FBS, 46.1 µM
[23] = RPMI 5 mM glucose + 10% dialyzed FBS, 0.000781 µM
[24] = RPMI 5 mM glucose + 10% dialyzed FBS, 0.00234 µM
[25] = RPMI 5 mM glucose + 10% dialyzed FBS, 0.00702 µM
[26] = RPMI 5 mM glucose + 10% dialyzed FBS, 0.0211 µM
[27] = RPMI 5 mM glucose + 10% dialyzed FBS, 0.0632 µM
[28] = RPMI 5 mM glucose + 10% dialyzed FBS, 0.19 µM
[29] = RPMI 5 mM glucose + 10% dialyzed FBS, 0.569 µM
[30] = RPMI 5 mM glucose + 10% dialyzed FBS, 1.71 µM
[31] = RPMI 5 mM glucose + 10% dialyzed FBS, 5.12 µM
[32] = RPMI 5 mM glucose + 10% dialyzed FBS, 15.4 µM
[33] = RPMI 5 mM glucose + 10% dialyzed FBS, 46.1 µM

Structure (SMILES) | cell viability [1] | cell viability [2] | cell viability [3] | cell viability [4] | cell viability [5] | cell viability [6] | cell viability [7] | cell viability [8] | cell viability [9] | cell viability [10] | cell viability [11] | cell viability [12] | cell viability [13] | cell viability [14] | cell viability [15] | cell viability [16] | cell viability [17] | cell viability [18] | cell viability [19] | cell viability [20] | cell viability [21] | cell viability [22] | cell viability [23] | cell viability [24] | cell viability [25] | cell viability [26] | cell viability [27] | cell viability [28] | cell viability [29] | cell viability [30] | cell viability [31] | cell viability [32] | cell viability [33]
Cc1cccc(C#Cc2ccccc2)n1 | 119% | 140% | 123% | 134% | 132% | 117% | 137% | 134% | 116% | 106% | 89.5% | 128% | 118% | 109% | 123% | 128% | 118% | 128% | 121% | 102% | 105% | 84.4% |  |  |  |  |  |  |  |  |  |  | 
COC[C@@H](NC(C)=O)C(=O)NCc1ccccc1 | 117% | 116% | 118% | 118% | 112% | 119% | 124% | 105% | 100% | 120% | 111% | 115% | 111% | 118% | 123% | 99.7% | 115% | 99.9% | 121% | 90.3% | 103% | 116% | 103% | 101% | 102% | 96.7% | 99.4% | 131% | 106% | 105% | 90% | 86.7% | 96.9%
Cc1cc(Nc2nc(N[C@@H](C)c3ncc(F)cn3)ncc2Cl)n[nH]1 | 93% | 97.4% | 109% | 114% | 103% | 106% | 102% | 99.4% | 61.2% | 21.7% | 19.4% | 120% | 129% | 114% | 110% | 112% | 126% | 110% | 26.2% | 19% | 17.1% | 20.3% |  |  |  |  |  |  |  |  |  |  | 
COc1cc2c(Nc3ccc(Cl)c(Cl)c3F)ncnc2cc1OC[C@@H]1C[C@@H]2CN(C)C[C@@H]2C1 | 105% | 118% | 121% | 120% | 98.8% | 113% | 100% | 93.3% | 56% | 47% | 10.1% | 98% | 117% | 121% | 144% | 118% | 118% | 101% | 64.2% | 44.4% | 48% | 5.51% | 112% | 109% | 133% | 129% | 119% | 124% | 110% | 75.8% | 67% | 55.7% | 6.25%
CC(=O)Nc1ccc([C@H](C)C(=O)Nc2ncc(C(C)C)s2)cc1 | 98.9% | 102% | 106% | 95.9% | 104% | 105% | 105% | 95.1% | 61.9% | 8.42% | 4.85% | 107% | 112% | 132% | 121% | 117% | 108% | 123% | 114% | 76% | 8.73% | 4.33% | 95.6% | 79.1% | 97.4% | 97.2% | 109% | 97.2% | 110% | 99.2% | 64.6% | 8.82% | 4.36%
N[S+](=O)([O-])c1cc(Cl)c(Cl)c([S+](N)(=O)[O-])c1 | 108% | 95.8% | 108% | 109% | 101% | 90.5% | 106% | 104% | 111% | 39.1% | 88.9% | 85.2% | 97% | 111% | 97.7% | 119% | 112% | 116% | 98.2% | 116% | 35.5% | 84.6% | 102% | 86% | 98.8% | 101% | 106% | 97.9% | 99.5% | 105% | 107% | 35.6% | 87.1%
OCc1ccc(-c2nn(Cc3ccccc3)c3ccccc23)o1 | 115% | 128% | 124% | 111% | 113% | 113% | 117% | 38.1% | 96.1% | 44.6% | 19.3% | 116% | 110% | 126% | 100% | 119% | 107% | 98.1% | 18.2% | 80.9% | 37.4% | 11.2% |  |  |  |  |  |  |  |  |  |  | 
CC(=O)N1CCN(c2ccc(OC[C@H]3CO[C@](Cn4ccnc4)(c4ccc(Cl)cc4Cl)O3)cc2)CC1 | 98.3% | 97.8% | 104% | 95.2% | 107% | 26.4% | 90.9% | 92.8% | 21.5% | 87.1% | 86.4% | 124% | 136% | 121% | 125% | 134% | 28% | 113% | 104% | 14.1% | 90.5% | 48.5% |  |  |  |  |  |  |  |  |  |  | 
O=C(CO)N1CCC(c2n[nH]c(-c3ccc(Cl)cc3)c2-c2ccncn2)CC1 | 102% | 119% | 119% | 112% | 110% | 104% | 98.7% | 101% | 75.6% | 64.9% | 31% | 114% | 128% | 123% | 127% | 107% | 123% | 109% | 106% | 85.3% | 49.4% | 16% | 131% | 108% | 108% | 141% | 110% | 119% | 128% | 100% | 79.7% | 51.5% | 20.1%
Cn1c(Nc2ccc(C(F)(F)F)cc2)nc2cc(Oc3ccnc(-c4nc(C(F)(F)F)c[nH]4)c3)ccc21 | 97.1% | 114% | 116% | 96.8% | 127% | 115% | 109% | 96.2% | 59.6% | 55.1% | 24.8% | 111% | 109% | 124% | 94.8% | 136% | 117% | 122% | 98.2% | 53.4% | 44.2% | 12.7% | 108% | 118% | 134% | 102% | 128% | 130% | 116% | 112% | 55.3% | 48.6% | 18.1%
O=C1Nc2cc(Br)ccc2/C1=C1/Nc2ccccc2/C1=N\O | 109% | 102% | 110% | 100% | 108% | 78.5% | 66.5% | 31.5% | 4.61% | 3.01% | 1.68% | 87.2% | 113% | 110% | 95.3% | 98.4% | 98.8% | 60% | 21.3% | 2.47% | 1.39% | 0.712% | 111% | 102% | 89.9% | 99.4% | 90.5% | 69.9% | 64.9% | 34.8% | 4.53% | 2.51% | 1.3%
C[C@@H](O)[C@@H]1[C@H]2[C@@H](C)\C(=C(/N2C1=O)C(=O)OCOC(=O)C(C)(C)C)SC3CN(C3)/C4=N/CCS4 | 74.8% | 95.7% | 99.2% | 112% | 117% | 102% | 101% | 108% | 107% | 97.2% | 82.1% | 88.7% | 114% | 119% | 117% | 101% | 116% | 111% | 125% | 117% | 109% | 72.8% | 82.5% | 109% | 120% | 113% | 122% | 138% | 106% | 113% | 121% | 121% | 85.9%
CC(C)[C@@H](C[S+](=O)([O-])C(C)C)N1C(=O)[C@@](C)(CC(=O)O)C[C@H](c2cccc(Cl)c2)[C@H]1c1ccc(Cl)cc1 | 124% | 107% | 125% | 117% | 115% | 106% | 85.9% | 77.1% | 54.3% | 31.8% | 18.7% |  |  |  |  |  |  |  |  |  |  |  | 127% | 109% | 121% | 110% | 128% | 113% | 100% | 70.9% | 47.8% | 26.5% | 18.5%
O=C1\C=C/C[C@@H]2[C@H]3CCCN4CCC[C@@H](CN12)[C@@H]34 | 109% | 113% | 111% | 112% | 99.6% | 105% | 117% | 112% | 93.4% | 102% | 101% | 90.8% | 77.1% | 103% | 108% | 101% | 59.3% | 99.5% | 107% | 87.1% | 88.6% | 95.7% | 89.1% | 108% | 101% | 115% | 108% | 81.8% | 106% | 118% | 105% | 98.9% | 92.2%
CC1(C)C(=O)N(CCN2CCC(C(=O)c3ccc(F)cc3)CC2)c2ccccc21 | 92.5% | 111% | 113% | 111% | 119% | 119% | 119% | 113% | 103% | 98.7% | 101% | 102% | 121% | 115% | 115% | 105% | 117% | 115% | 100% | 89.7% | 107% | 94.2% | 111% | 109% | 105% | 134% | 116% | 115% | 117% | 124% | 111% | 114% | 101%
